Patent US3981865A, “Bis-type penicillins and process for producing the same” (Toyama Chemical Co., Ltd., priority 1974, dated 1976)
In brackets after ≈: the same amount, converted by molar mass.

Experiments:
[1] = system: Klebsiella pneumoniae; assay: MIC by plate method, standard strains; type: cell-based; details: Heart infusion agar pH 7.4, inoculum 10^4 cells per plate (10^6 cells/ml.), unit assumed
Procedure: (§1) The minimum inhibitory concentration (MIC) was determined by the plate method disclosed in "Chemotherapy" (Japan), Vol. 16, (1968), pages 98 - 99. The culture medium used was a Heart infusion agar (pH 7.4). The number of the cells per plate used in the inoculum was 10^4 (10^6 cells/ml.).

[2] = system: Pseudomonas aeruginosa I.F.O.; assay: MIC by plate method, standard strains; type: cell-based; details: Heart infusion agar pH 7.4, inoculum 10^4 cells per plate (10^6 cells/ml.), unit assumed
Procedure: as §1

[3] = system: Escherchia coli NIHJ; assay: MIC by plate method, standard strains; type: cell-based; details: Heart infusion agar pH 7.4, inoculum 10^4 cells per plate (10^6 cells/ml.), unit assumed
Procedure: as §1

[4] = system: Staphylococcus aureus 209P; assay: MIC by plate method, standard strains; type: cell-based; details: Heart infusion agar pH 7.4, inoculum 10^4 cells per plate (10^6 cells/ml.), unit assumed
Procedure: as §1

[5] = system: Proteus vulgaris 3027; assay: MIC by plate method, standard strains; type: cell-based; details: Heart infusion agar pH 7.4, inoculum 10^4 cells per plate (10^6 cells/ml.), unit assumed
Procedure: as §1

[6] = system: β-lactamase from Escherchia coli 33; assay: Resistant activity against β-lactamase, iodometric assay; type: biochemical; details: β-lactamase hydrolysis, relative to Potassium Penicillin G = 100
Procedure: (§2) 3. Resistant activity against β-lactamase, Pseudomonas aeruginosa GN 238 and Escherchia coli 33:
(§3) The resistant activity of each compound against β-lactamase was measured in the manner described below.
(§4) β-Lactamase was prepared from Pseudomonas aeruginosa GN 238 and Escherchia coli 33. This microorganism was cultured in 100 ml. of a medium containing 2 g. of yeast extract, 10 g. of polypeptone, 2 g. of glucose, 7 g. of disodium hydrogen phosphate, 2 g. of potassium dihydrogen phosphate, 1.2 g. of ammonium sulfate and 0.4 g. of magnesium sulfate, per liter, in a 500-ml. Erlenmeyer flask for 6 hrs. at 37°C with shaking. The resulting cells were collected by centrifugation (5,000 r.p.m. × 10 min.), washed three times with 0.1 M phosphate buffer (pH 7.0). Subsequently, the cells were subjected to sonication (20 KHz, 20 min.) and then centrifuged at 15,000 r.p.m. for 60 min. By using the supernatant of enzyme fluid, the resistance of each compound against β-lactamase was determined by the iodometric assay method. Each numeral shown in Table 3 is a relative activity value calculated by assuming as 100 the activity of the control Potassium Penicillin G.

[7] = system: β-lactamase from Pseudomonas aeruginosa GN 238; assay: as above; type: biochemical; details: β-lactamase hydrolysis, relative to Potassium Penicillin G = 100
Procedure: as §2, §3, §4

[8] = system: Pseudomonas aeruginosa clinical isolates; assay: MIC by plate method, clinical isolates of bacteria; type: cell-based; details: for MIC Pseudomonas aeruginosa GN 82: clinical isolate GN 82, Heart infusion agar pH 7.4, unit assumed; for MIC Pseudomonas aeruginosa GN 163: clinical isolate GN 163, Heart infusion agar pH 7.4, unit assumed; for MIC Pseudomonas aeruginosa GN 221: clinical isolate GN 221, Heart infusion agar pH 7.4, unit assumed; for MIC Pseudomonas aeruginosa GN 264: clinical isolate GN 264, Heart infusion agar pH 7.4, unit assumed; for MIC Pseudomonas aeruginosa GN 376: clinical isolate GN 376, Heart infusion agar pH 7.4, unit assumed; for MIC Pseudomonas aeruginosa GN 383: clinical isolate GN 383, Heart infusion agar pH 7.4, unit assumed; for MIC Pseudomonas aeruginosa GN 1035: clinical isolate GN 1035, Heart infusion agar pH 7.4, unit assumed; for MIC Pseudomonas aeruginosa GN 1091: clinical isolate GN 1091, Heart infusion agar pH 7.4, unit assumed; for MIC Pseudomonas aeruginosa GN 2565: clinical isolate GN 2565, Heart infusion agar pH 7.4, unit assumed; for MIC Pseudomonas aeruginosa GN 2987: clinical isolate GN 2987, Heart infusion agar pH 7.4, unit assumed; for MIC Pseudomonas aeruginosa S-2: clinical isolate S-2, Heart infusion agar pH 7.4, unit assumed; for MIC Pseudomonas aeruginosa S-3: clinical isolate S-3, Heart infusion agar pH 7.4, unit assumed; for MIC Pseudomonas aeruginosa S-4: clinical isolate S-4, Heart infusion agar pH 7.4, unit assumed
Procedure: as §1
MIC was determined in the same manner as in the preceding paragraph (1).

[9] = Acute toxicity LD50 i.v. in mouse; details: in vivo, iv; i.v. in mouse having a weight of 19 ± 1 g.
From the text: The present penicillins have generally low toxicity.

Compound: CC1(C)S[C@@H]2[C@H](NC(=O)[C@H](NC(=O)NC(=O)c3ccc(C(=O)NC(=O)N[C@@H](C(=O)N[C@@H]4C(=O)N5[C@@H]4SC(C)(C)[C@@H]5C(=O)O)c4ccccc4)cc3)c3ccccc3)C(=O)N2[C@H]1C(=O)O [Compound No. 1]
- MIC Klebsiella pneumoniae [1]: 25 µg/mL (≈ 27.3 µM)
- MIC Pseudomonas aeruginosa I.F.O. [2]: 12.5 µg/mL (≈ 13.7 µM)
- MIC Escherchia coli NIHJ [3]: 3.13 µg/mL (≈ 3.42 µM)
- MIC Staphylococcus aureus 209P [4]: < 1.57 µg/mL
- MIC Proteus vulgaris 3027 [5]: 25 µg/mL (≈ 27.3 µM)
- Relative activity (%) Escherchia coli 33 [6]: 12%
- Relative activity (%) Pseudomonas aeruginosa GN238 [7]: 18%

Compound: CC1(C)S[C@@H]2[C@H](NC(=O)[C@H](NC(=O)NC(=O)CCC(=O)NC(=O)N[C@@H](C(=O)N[C@@H]3C(=O)N4[C@@H]3SC(C)(C)[C@@H]4C(=O)O)c3ccccc3)c3ccccc3)C(=O)N2[C@H]1C(=O)O [Compound No. 3, N,N'-succinyl-bis[6-(D(-)-α-ureidophenylacetamido)penicillanic acid]]
- MIC Pseudomonas aeruginosa GN 82 [8]: 12.5 µg/mL (≈ 14.4 µM)
- MIC Pseudomonas aeruginosa GN 163 [8]: 25 µg/mL (≈ 28.8 µM)
- MIC Pseudomonas aeruginosa GN 221 [8]: 25 µg/mL (≈ 28.8 µM)
- MIC Pseudomonas aeruginosa GN 264 [8]: 50 µg/mL (≈ 57.7 µM)
- MIC Pseudomonas aeruginosa GN 376 [8]: 25 µg/mL (≈ 28.8 µM)
- MIC Pseudomonas aeruginosa GN 383 [8]: 50 µg/mL (≈ 57.7 µM)
- MIC Pseudomonas aeruginosa GN 1035 [8]: 50 µg/mL (≈ 57.7 µM)
- MIC Pseudomonas aeruginosa GN 1091 [8]: 25 µg/mL (≈ 28.8 µM)
- MIC Pseudomonas aeruginosa GN 2565 [8]: 25 µg/mL (≈ 28.8 µM)
- MIC Pseudomonas aeruginosa GN 2987 [8]: 25 µg/mL (≈ 28.8 µM)
- MIC Pseudomonas aeruginosa S-2 [8]: 25 µg/mL (≈ 28.8 µM)
- MIC Pseudomonas aeruginosa S-3 [8]: 25 µg/mL (≈ 28.8 µM)
- MIC Pseudomonas aeruginosa S-4 [8]: 25 µg/mL (≈ 28.8 µM)
- MIC Klebsiella pneumoniae [1]: 100 µg/mL (≈ 115 µM)
- MIC Pseudomonas aeruginosa I.F.O. [2]: 25 µg/mL (≈ 28.8 µM)
- MIC Escherchia coli NIHJ [3]: 12.5 µg/mL (≈ 14.4 µM)
- MIC Staphylococcus aureus 209P [4]: < 1.57 µg/mL
- MIC Proteus vulgaris 3027 [5]: 12.5 µg/mL (≈ 14.4 µM)
- LD50 [9]: > 3000 mg/kg
- Relative activity (%) Escherchia coli 33 [6]: 3%
- Relative activity (%) Pseudomonas aeruginosa GN238 [7]: 5%

Compound: CC1(C)S[C@@H]2[C@H](NC(=O)[C@H](NC(=O)NC(=O)CCCCCCCCC(=O)NC(=O)N[C@@H](C(=O)N[C@@H]3C(=O)N4[C@@H]3SC(C)(C)[C@@H]4C(=O)O)c3ccccc3)c3ccccc3)C(=O)N2[C@H]1C(=O)O [Compound No. 4, N,N'-sebacoyl-bis[6-(D(-)-α-ureidophenylacetamido)penicillanic acid]]
- MIC Klebsiella pneumoniae [1]: 25 µg/mL (≈ 26.3 µM)
- MIC Pseudomonas aeruginosa I.F.O. [2]: 50 µg/mL (≈ 52.6 µM)
- MIC Escherchia coli NIHJ [3]: 3.13 µg/mL (≈ 3.29 µM)
- MIC Staphylococcus aureus 209P [4]: < 1.57 µg/mL
- MIC Proteus vulgaris 3027 [5]: 25 µg/mL (≈ 26.3 µM)
- Relative activity (%) Escherchia coli 33 [6]: 8%
- Relative activity (%) Pseudomonas aeruginosa GN238 [7]: 12%

Compound: CC1(C)S[C@@H]2[C@H](NC(=O)[C@H](NC(=O)NC(=O)CCCCCCCCCCCC(=O)NC(=O)N[C@@H](C(=O)N[C@@H]3C(=O)N4[C@@H]3SC(C)(C)[C@@H]4C(=O)O)c3ccccc3)c3ccccc3)C(=O)N2[C@H]1C(=O)O [Compound No. 6, N,n'-tridecanedioyl-bis[6-(D(-)-α-ureidophenylacetamido)penicillanic acid]]
- MIC Klebsiella pneumoniae [1]: 12.5 µg/mL (≈ 12.6 µM)
- MIC Pseudomonas aeruginosa I.F.O. [2]: 25 µg/mL (≈ 25.2 µM)
- MIC Escherchia coli NIHJ [3]: 3.13 µg/mL (≈ 3.15 µM)
- MIC Staphylococcus aureus 209P [4]: < 1.57 µg/mL
- MIC Proteus vulgaris 3027 [5]: 25 µg/mL (≈ 25.2 µM)
- Relative activity (%) Escherchia coli 33 [6]: < 1%
- Relative activity (%) Pseudomonas aeruginosa GN238 [7]: < 1%

Compound: CC1(C)S[C@@H]2[C@H](NC(=O)Cc3ccccc3)C(=O)N2[C@H]1C(=O)O [Potassium Penicillin G, reference compound]
- Relative activity (%) Escherchia coli 33 [6]: 100%
- Relative activity (%) Pseudomonas aeruginosa GN238 [7]: 100%

Compound: CC1(C)S[C@@H]2[C@H](NC(=O)[C@H](N)c3ccccc3)C(=O)N2[C@H]1C(=O)O [Sodium Ampicillin, reference compound]
- MIC Pseudomonas aeruginosa GN 82 [8]: > 200 µg/mL
- MIC Pseudomonas aeruginosa GN 163 [8]: > 200 µg/mL
- MIC Pseudomonas aeruginosa GN 221 [8]: > 200 µg/mL
- MIC Pseudomonas aeruginosa GN 264 [8]: > 200 µg/mL
- MIC Pseudomonas aeruginosa GN 376 [8]: > 200 µg/mL
- MIC Pseudomonas aeruginosa GN 383 [8]: > 200 µg/mL
- MIC Pseudomonas aeruginosa GN 1035 [8]: > 200 µg/mL
- MIC Pseudomonas aeruginosa GN 1091 [8]: > 200 µg/mL
- MIC Pseudomonas aeruginosa GN 2565 [8]: > 200 µg/mL
- MIC Pseudomonas aeruginosa GN 2987 [8]: > 200 µg/mL
- MIC Pseudomonas aeruginosa S-2 [8]: > 200 µg/mL
- MIC Pseudomonas aeruginosa S-3 [8]: > 200 µg/mL
- MIC Pseudomonas aeruginosa S-4 [8]: > 200 µg/mL
- MIC Klebsiella pneumoniae [1]: 50 µg/mL
- MIC Pseudomonas aeruginosa I.F.O. [2]: > 200 µg/mL
- MIC Escherchia coli NIHJ [3]: < 1.57 µg/mL
- MIC Staphylococcus aureus 209P [4]: < 1.57 µg/mL
- MIC Proteus vulgaris 3027 [5]: > 200 µg/mL

Compound: CC1(C)S[C@@H]2[C@H](NC(=O)[C@H](NC(=O)NC(=O)c3ccc4cc(C(=O)NC(=O)N[C@@H](C(=O)N[C@@H]5C(=O)N6[C@@H]5SC(C)(C)[C@@H]6C(=O)O)c5ccccc5)ccc4c3)c3ccccc3)C(=O)N2[C@H]1C(=O)O [compound 2]
- MIC Klebsiella pneumoniae [1]: 3.13 µg/mL (≈ 3.24 µM)
- MIC Pseudomonas aeruginosa I.F.O. [2]: 25 µg/mL (≈ 25.9 µM)
- MIC Escherchia coli NIHJ [3]: < 1.57 µg/mL
- MIC Staphylococcus aureus 209P [4]: < 1.57 µg/mL
- MIC Proteus vulgaris 3027 [5]: 3.15 µg/mL (≈ 3.26 µM)

Compound: CC1(C)S[C@@H]2[C@H](NC(=O)[C@H](NC(=O)NC(=O)CCCCCCCCCCC(=O)NC(=O)N[C@@H](C(=O)N[C@@H]3C(=O)N4[C@@H]3SC(C)(C)[C@@H]4C(=O)O)c3ccccc3)c3ccccc3)C(=O)N2[C@H]1C(=O)O [compound 5, N,n'-dodecanedioyl-bis[6-(D(-)-α-ureidophenylacetamido)penicillanic acid]]
- MIC Klebsiella pneumoniae [1]: 12.5 µg/mL (≈ 12.8 µM)
- MIC Pseudomonas aeruginosa I.F.O. [2]: 50 µg/mL (≈ 51.1 µM)
- MIC Escherchia coli NIHJ [3]: 3.13 µg/mL (≈ 3.2 µM)
- MIC Staphylococcus aureus 209P [4]: < 1.57 µg/mL
- MIC Proteus vulgaris 3027 [5]: 100 µg/mL (≈ 102 µM)

Compound: CC1(C)S[C@@H]2[C@H](NC(=O)[C@H](NC(=O)NC(=O)COc3ccc(OCC(=O)NC(=O)N[C@@H](C(=O)N[C@@H]4C(=O)N5[C@@H]4SC(C)(C)[C@@H]5C(=O)O)c4ccccc4)cc3)c3ccccc3)C(=O)N2[C@H]1C(=O)O [compound 7]
- MIC Klebsiella pneumoniae [1]: 25 µg/mL (≈ 25.6 µM)
- MIC Pseudomonas aeruginosa I.F.O. [2]: 25 µg/mL (≈ 25.6 µM)
- MIC Escherchia coli NIHJ [3]: 6.25 µg/mL (≈ 6.41 µM)
- MIC Staphylococcus aureus 209P [4]: < 1.57 µg/mL
- MIC Proteus vulgaris 3027 [5]: 12.5 µg/mL (≈ 12.8 µM)

Compound: CC1(C)S[C@@H]2[C@H](NC(=O)[C@H](NC(=O)NC(=O)c3ccc(CCc4ccc(C(=O)NC(=O)N[C@@H](C(=O)N[C@@H]5C(=O)N6[C@@H]5SC(C)(C)[C@@H]6C(=O)O)c5ccccc5)cc4)cc3)c3ccccc3)C(=O)N2[C@H]1C(=O)O [compound 8]
- MIC Klebsiella pneumoniae [1]: 6.25 µg/mL (≈ 6.13 µM)
- MIC Pseudomonas aeruginosa I.F.O. [2]: 50 µg/mL (≈ 49.1 µM)
- MIC Escherchia coli NIHJ [3]: < 1.57 µg/mL
- MIC Staphylococcus aureus 209P [4]: < 1.57 µg/mL
- MIC Proteus vulgaris 3027 [5]: 6.25 µg/mL (≈ 6.13 µM)

Compound: CC1(C)S[C@@H]2[C@H](NC(=O)[C@H](NC(=O)NC(=O)c3ccc(C(=O)c4ccc(C(=O)NC(=O)N[C@@H](C(=O)N[C@@H]5C(=O)N6[C@@H]5SC(C)(C)[C@@H]6C(=O)O)c5ccccc5)cc4)cc3)c3ccccc3)C(=O)N2[C@H]1C(=O)O [compound 9]
- MIC Klebsiella pneumoniae [1]: 12.5 µg/mL (≈ 12.3 µM)
- MIC Pseudomonas aeruginosa I.F.O. [2]: 25 µg/mL (≈ 24.5 µM)
- MIC Escherchia coli NIHJ [3]: 3.13 µg/mL (≈ 3.07 µM)
- MIC Staphylococcus aureus 209P [4]: < 1.57 µg/mL
- MIC Proteus vulgaris 3027 [5]: 12.5 µg/mL (≈ 12.3 µM)
